Results on three compounds are retold here after patent publication US5356880A, “Glycyrrhetinic acid derivatives” (priority 1991, dated 1994).

Like-named read-outs stand apart in the source and are kept apart here.

One data set deals with HSV-1 (KOS strain). In words: microbe, parasite or virus in culture. It is filed as cell-based, Herpes simplex virus type 1. As to conditions: Human alphaherpesvirus 1, Vero, read-out: Antiviral Activity (ΔTCID50).
For data set [1], the system named is vaccinia viruses (D1E strain). In words: microbe, parasite or virus in culture. Format: cell-based. The settings on record: Orthopoxvirus vaccinia, Vero, read-out: Antiviral Activity (ΔTCID50).
Data set [2] can be described thus: Acute toxicity testing, oral, mice (LD50, Litchfield-Willcoxon). The settings on record: mouse, in vivo, ICR male mice, 7 days observation. From the text: The compounds to be tested in the form of a 2% aqueous solution of Tween 80 were orally administrated to ICR male mice (weights: 24-30 g), five for each group.
A further data set relates to HSV-1 (Miyama strain). The data set can be described thus: In vitro antiviral action on cells infected with HSV-1 (Miyama strain), CPE inhibition, TCID50. It is filed as cell-based, Herpes simplex virus type 1. The settings on record: Human alphaherpesvirus 1, GMK cells, read-out: Antiviral Activity (ΔTCID50); for log reduction at 1 µg/mL: 1 μg/ml; for log reduction at 5 µg/mL: 5 μg/ml; for log reduction at 25 µg/mL: 25 μg/ml.

Data set [3] has as its system GMK cells.
The test system of the next data set is HSV-2 (UW-268 strain). In words: microbe, parasite or virus in culture. It is filed as cell-based, Herpes simplex virus type 2. The settings on record: Human alphaherpesvirus 2, Vero, read-out: Antiviral Activity (ΔTCID50).
Data set [4] relates to influenza viruses (A/PR/8 strain). In words: microbe, parasite or virus in culture. Format: cell-based, influenza virus A/PR/8. The settings on record: unidentified influenza virus, PR/8, MDCK, read-out: Antiviral Activity (ΔTCID50).
A further data set has as its system influenza viruses. The settings on record: in vivo; cited from earlier work.
For data set [5], the system named is influenza viruses (A/PR/8 strain). The data set can be described thus: microbe, parasite or virus in culture. It is filed as cell-based, influenza virus A/PR/8. As to conditions: unidentified influenza virus, PR/8, MDCK, read-out: Antiviral Activity (ΔTCID50). The source holds these as a separate data set.
The test system of data set [6] is GMK cells. The data set can be described thus: Cytotoxicity (HSV UV-238 strain test), microscopic.
For a further data set, the system named is herpes simplex virus. In words: Antiviral activity, general statement.
Data set [7] can be described thus: Safety / cytotoxicity, general statement.
Another data set has as its system HSV (UV-238 Strain). The data set can be described thus: Action on HSV (UV-238 strain), CPE inhibition, TCID50. Format: cell-based. As to conditions: read-out: Antiviral Activity (ΔTCID50).

As for `COc1ccccc1N1CCN(C(=O)[C@@]2(C)CC[C@]3(C)CC[C@]4(C)C(=CC[C@@H]5[C@@]6(C)CC[C@H](O[C@H]7O[C@H](C(=O)O)[C@@H](O)[C@H](O)[C@H]7O[C@@H]7O[C@H](C(=O)O)[C@@H](O)[C@H](O)[C@H]7O)C(C)(C)[C@@H]6CC[C@]54C)[C@@H]3C2)CC1` [Comp. Ex. 37, 30-(N-2-(4-(2-methoxylphenyl)piperazine-1-yl)carbonyl)-18β-olean-12-en-3β-yl-2-O-β-D-glucuronyl-α-D-gluconic acid], the log reduction at 1 µg/mL in the data set with HSV-1 (KOS strain) came to 2.74; in data set [1], 1.49; with HSV-1 (Miyama strain), 1.94; in the data set with HSV-2 (UW-268 strain), 1.87; in data set [4], 1.64. The log reduction at 5 µg/mL in the data set with HSV-1 (KOS strain) was 2.65; in data set [1] it was 2.85; in the data set with HSV-1 (Miyama strain) it was greater than 3.17; in the data set with HSV-2 (UW-268 strain), 3.01; in [4], 1.7. The log reduction at 25 µg/mL was greater than 3.25 with HSV-1 (KOS strain); 2.61 in data set [1]; greater than 3.73 in the data set with HSV-1 (Miyama strain); greater than 3.85 in the data set with HSV-2 (UW-268 strain); 2.38 in data set [4]. Further, the LD50 at 168 h in data set [2] is greater than 1000 mg/kg. Moreover, the magnitude of cytotoxicity result in the data set on Vero cells, in the data set with GMK cells [3] (1 μg/ml), with GMK cells [3] (5 μg/ml) and with GMK cells [3] (25 μg/ml) was “-” throughout.
Regarding `N#CNc1nncs1` [LY253963], in the data set on influenza viruses, the “effect on influenza viruses in animal tests” value was “resistant to influenza viruses in animal tests”.
Take `COc1ccccc1N1CCN(C(=O)[C@@]2(C)CC[C@]3(C)CC[C@]4(C)C(=CC[C@@H]5[C@@]6(C)CC[C@H](OC(=O)CCC(=O)O)C(C)(C)[C@@H]6CC[C@]54C)[C@@H]3C2)CC1` [Table 1, Comp. (13), 1-[3β-(3-carboxypropanoyloxy)-18β-olean-12-en-30-oyl]-4-(2-methoxyphenyl)piperazine]: the log reduction at 1 µg/mL in [5] was 0.4; in the data set with HSV-1 (Miyama strain) it was 0.8; in the data set on HSV (UV-238 Strain) (1 μg/ml), 0.9. For the same compound, the figures for the log reduction at 5 µg/mL (in data set [5]; with HSV-1 (Miyama strain); in the data set on HSV (UV-238 Strain) (5 μg/ml)) were 0.6, 2.6 and 1.4, respectively. Moreover, in data set [5], the log reduction at 20 µg/mL was found to be 1.5. Further, the magnitude of cytotoxicity entry in the data set on GMK cells [6] (1 μg/ml), in the data set on GMK cells [6] (5 μg/ml), with GMK cells [3] (1 μg/ml) and in the data set on GMK cells [3] (5 μg/ml) was “-” throughout. In addition, the antiviral activity entry in the data set on herpes simplex virus is listed as “a particularly high antiviral activity”. Also, the log reduction at 25 µg/mL with HSV-1 (Miyama strain) and with HSV (UV-238 Strain) (25 μg/ml) was 2.5 in each case. Besides, the “safety / cytotoxic action” value in [7] was “of greatly safety”.

As a reminder, the LD50 is the dose at which mortality reaches 50%. Low readings indicate greater toxicity, high ones lower toxicity.
